Measured values from patent publication US6040149A, “Assay for identifying agents which act on the ceramide-activated protein kinase, kinase suppressor of ras, and methods of using said agents” (priority 1997, dated 2000).

Tests used:
KSR = target: T1, KSR (Mus musculus, UniProt Q61097); assay: KSR autophosphorylation after treatment of COS-7 cells expressing KSR; format: cell-based, mouse (KSR expressed in COS-7 cells); conditions: TNFα 10 nM
T1 sequence (Q61097 1-873): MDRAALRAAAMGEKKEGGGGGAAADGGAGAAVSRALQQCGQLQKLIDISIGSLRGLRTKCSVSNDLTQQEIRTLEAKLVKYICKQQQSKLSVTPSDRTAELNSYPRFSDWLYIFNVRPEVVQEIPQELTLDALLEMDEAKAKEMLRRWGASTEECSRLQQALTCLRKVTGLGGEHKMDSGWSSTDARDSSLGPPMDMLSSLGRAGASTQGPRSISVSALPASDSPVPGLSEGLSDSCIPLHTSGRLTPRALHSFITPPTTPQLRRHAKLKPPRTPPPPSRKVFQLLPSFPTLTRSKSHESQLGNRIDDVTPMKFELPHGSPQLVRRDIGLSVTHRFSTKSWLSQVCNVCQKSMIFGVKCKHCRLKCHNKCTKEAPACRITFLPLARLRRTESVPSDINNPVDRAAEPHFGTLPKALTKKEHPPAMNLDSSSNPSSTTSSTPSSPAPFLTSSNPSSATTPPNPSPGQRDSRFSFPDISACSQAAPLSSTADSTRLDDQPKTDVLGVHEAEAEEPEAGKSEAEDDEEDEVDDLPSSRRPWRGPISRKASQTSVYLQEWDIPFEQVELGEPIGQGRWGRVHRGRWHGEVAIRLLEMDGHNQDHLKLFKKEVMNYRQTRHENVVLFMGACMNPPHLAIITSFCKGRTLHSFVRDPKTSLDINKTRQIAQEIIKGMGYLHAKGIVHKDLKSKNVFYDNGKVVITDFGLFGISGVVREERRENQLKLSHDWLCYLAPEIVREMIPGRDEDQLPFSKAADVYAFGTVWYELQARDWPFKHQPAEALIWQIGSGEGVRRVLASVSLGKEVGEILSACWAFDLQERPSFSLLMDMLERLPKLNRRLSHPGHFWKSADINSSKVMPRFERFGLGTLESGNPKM
Method: FIG. 23A--COS-7 cells were transfected as in FIG. 22A and placed in serum-free medium. After 4 hours, cells were stimulated for 10 min with the ceramide analog, C2-ceramide (Biomol), at the concentrations indicated. Cells were lysed with NP-40 lysis buffer, and Flag-tagged KSR (0.8 mg protein for each point) was immunoprecipitated and assayed for autophosphorylation activity as described in Experimental Procedures. The autoradiogram was exposed for 1 hour. KSR is expressed at similar levels in each sample as monitored by Western blot (data not shown). Data represent one of three similar experiments.
COS-7 cells expressing Flag-tagged KSR were stimulated with 10 nM TNFα for the times indicated and lysed with NP-40 buffer as in FIG. 2A. […] The autoradiogram was exposed for 1 hour. Data represent one of three similar experiments.
KSR was immunoprecipitated as above from 0.8 mg NP-40 lysate protein with 40 μl agarose-conjugated anti-Flag antibody at 4° C. for 4 hrs or overnight. […] The reaction was stopped by addition of Laemmli sample buffer. Samples were resolved by 7.5% sodium dodecyl sulfate-polyacrylamide gel electrophoresis (SDS-PAGE) and autoradiographed.

KSR/Raf-1 complex = assay: Co-immunoprecipitation of KSR and Raf-1 from treated COS-7 cells; format: cell-based, mouse KSR (COS-7 cells); conditions: TNFα
Method: FIG. […] Cells were lysed with NP-40 buffer and subjected to 4 hr of immunoprecipitation with anti-Raf-1 antibody. Two controls, KSR and KSR with ceramide treatment, received protein A conjugated sepharose beads without anti-Raf-1 antibody. […] Data represent one of four similar experiments.
Cell lysates were subjected to immunoprecipitation with anti-Flag antibody. Immunoprecipitated samples were handled as in FIG. 24A except Western blot analysis was performed with anti-Raf-1 antibody. Data represent one of three similar experiments.
Anti-Raf-1 antibody conjugated beads were prepared by overnight incubation of 2 μl of anti-Raf-1 antibody (a kind gift of Dr. Debbie Morrison) with 5 mg of the protein A conjugated sepharose beads, followed by washing three times with NP-40 lysis buffer. […] Lysates (0.8 mg total protein) were then incubated for 4 hrs with anti-Raf-1 bound sepharose beads or anti-Flag conjugated agarose beads. The beads were washed vigorously 5 times, boiled in Laemmli sample buffer, and proteins were separated on 7.5% SDS-PAGE. After electrophoresis, the gel was transferred to PVDF membrane and probed with anti-Flag antibody or anti-Raf-1 antibody.

TNF-α
KSR autophosphorylating activity (KSR): time-dependent enhancement | time to maximal effect (KSR; autophosphorylation, Raf-1 phosphorylation and activation): ≤ 20 min | KSR complex formation with Raf-1 (KSR/Raf-1 complex): induced KSR to complex with Raf-1
